Laboratory results as given in article PMC10584170, “Machine learning-based phenotypic imaging to characterise the targetable biology of Plasmodium falciparum male gametocytes for the development of transmission-blocking antimalarials” (PLOS Pathogens, 2023).
Read-outs that look alike come from different tables or passages of the source.

Tests used:
[1] = tested on: P. falciparum female gametocytes; assay: P. falciparum Dual Gamete Formation Assay (PfDGFA), female readout (Pfs25-positive female gametes); type: cell-based, Plasmodium falciparum NF54
Summary of the method: (§1)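 Mature NF54 gametocytes (day 14) were incubated with compound for 24 h at 37°C under 1% O2/3% CO2, then triggered with xanthurenic acid ookinete medium plus Cy3-anti-Pfs25. Exflagellation was imaged by brightfield; after a further 24 h at 28°C, Pfs25-positive female gametes were imaged by fluorescence and counted by automated image analysis.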

[2] = tested on: P. falciparum male gametocytes; assay: P. falciparum Dual Gamete Formation Assay (PfDGFA), male readout (exflagellation); type: cell-based, Plasmodium falciparum NF54; conditions: for Activity: hit = >50% inhibition in male or female readout in at least 3 replicates, 0 = no class assigned
Summary of the method: as §1

[3] = 2µM, 24h preincubation with gametocytes prior to induction of gametogenesis, average of replicates
[4] = 2µM, 24h preincubation with gametocytes prior to induction of gametogenesis, replicate R1
[5] = 2µM, 24h preincubation with gametocytes prior to induction of gametogenesis, replicate R3
[6] = 2µM, 24h preincubation with gametocytes prior to induction of gametogenesis, replicate R4
[7] = 2µM, 24h preincubation, number of replicates with >50% inhibition in the female readout
[8] = 2µM, 24h preincubation, number of replicates with >50% inhibition in the male readout
[9] = PfDGFA at 2µM, 24h preincubation with gametocytes prior to induction of gametogenesis, replicate R1
[10] = PfDGFA at 2µM, 24h preincubation with gametocytes prior to induction of gametogenesis, replicate R3
[11] = PfDGFA at 2µM, 24h preincubation with gametocytes prior to induction of gametogenesis, replicate R4
[12] = PfDGFA at 2µM, 24h preincubation, average of replicates
[13] = PfDGFA at 2µM, 24h preincubation with gametocytes, average of replicates
[14] = PfDGFA at 2µM, 24h preincubation with gametocytes, replicate R1
[15] = PfDGFA at 2µM, 24h preincubation with gametocytes, replicate R3
[16] = PfDGFA at 2µM, 24h preincubation with gametocytes, replicate R4
[17] = 2µM, 24h preincubation, hits selected on >50% inhibition in the female readout across replicates
[18] = 2µM, 24h preincubation, hits selected on >50% inhibition in the male readout across replicates
[19] = PfDGFA at 2µM, 24h preincubation

SMILES | Average inhibition female (%) [1, 3] [%] | % inhibition female (individual replicates) R1 [1, 4] [%] | % inhibition female (individual replicates) R3 [1, 5] [%] | % inhibition female (individual replicates) R4 [1, 6] [%] | HitlevelF [1, 7] | Average inhibition male (%) [2, 3] [%] | % inhibition male (individual replicates) R1 [2, 4] [%] | % inhibition male (individual replicates) R3 [2, 5] [%] | % inhibition male (individual replicates) R4 [2, 6] [%] | HitlevelM [2, 8] | % inhibition female (individual replicates) R1 [1, 9] [%] | % inhibition female (individual replicates) R3 [1, 10] [%] | % inhibition female (individual replicates) R4 [1, 11] [%] | Average inhibition female (%) [1, 12] [%] | % inhibition male (individual replicates) R1 [2, 9] [%] | % inhibition male (individual replicates) R3 [2, 10] [%] | % inhibition male (individual replicates) R4 [2, 11] [%] | Average inhibition male (%) [2, 12] [%] | further results
CN(C)CCC1CCN(CCS(=O)(=O)c2cccc(Nc3ncc(-c4cccc(F)c4)cn3)c2)CC1 [TCMDC-134374] | 19.0 | 15.2 | 18.5 | 17.0 | 0 | 10.6 | 1.8 | -1.4 | 25.6 | 0 | – | – | – | – | – | – | – | – | –
COc1cccc(-c2csc(C(=O)NCC3CCN(Cc4ccc(C(C)(C)C)cc4)C3)c2)c1.O=C(O)C(F)(F)F (centres unmarked) [TCMDC-134447] | 52.6 | 33.4 | 31.5 | 78.5 | 2 | 11.1 | 23.9 | 12.3 | 2.2 | 0 | – | – | – | – | – | – | – | – | –
CCc1ccccc1-c1csc(C(=O)NCC2CCN(Cc3ccc(C(C)(C)C)cc3)C2)c1.O=C(O)C(F)(F)F (centres unmarked) [TCMDC-134448] | 31.2 | 30.8 | 36.1 | 25.0 | 0 | -3.3 | 5.2 | -15.7 | -8.5 | 0 | – | – | – | – | – | – | – | – | –
COc1cccc(OC)c1CN1CCC(N(C)CCCCCCCCN2CCC(OC(=O)Nc3ccccc3-c3ccccc3)CC2)CC1 [TCMDC-134684] | 31.6 | 24.1 | 24.2 | 37.8 | 0 | 52.6 | 48.0 | 25.4 | 71.6 | 2 | – | – | – | – | – | – | – | – | –
COc1ccc(NC(=O)[C@H](Cc2ccccc2)Nc2cc(C)nc(NCCc3ccccn3)n2)cc1.O=C(O)C(F)(F)F [TCMDC-134746] | – | – | – | – | – | – | – | – | – | – | 14.8 | -15.3 | -1.8 | 1.5 | -7.8 | -30.0 | 23.6 | -7.4 | –
Cc1cc(N[C@@H](CC(C)C)C(=O)NCc2cccs2)nc(NCCc2cccs2)n1.O=C(O)C(F)(F)F [TCMDC-134815] | – | – | – | – | – | – | – | – | – | – | 9.6 | -33.2 | 28.8 | 0.8 | 11.4 | 4.6 | 26.9 | 17.0 | –
CN1CCC(NCc2cccc(-c3nn(C)c4nc(NC5CCCC5)ncc34)c2)CC1 [TCMDC-134840] | – | – | – | – | – | – | – | – | – | – | – | – | – | – | – | – | – | – | Average inhibition female (%) [1, 13]: 22.7%; % inhibition female (individual replicates) R1 [1, 14]: 22.9%; % inhibition female (individual replicates) R3 [1, 15]: 25.6%; % inhibition female (individual replicates) R4 [1, 16]: 7.8%; HitlevelF ([1]; number of replicates with >50% inhibition in the female readout, 2µM): 0; Average inhibition male (%) [2, 13]: 82.7%; % inhibition male (individual replicates) R1 [2, 14]: 90.3%; % inhibition male (individual replicates) R3 [2, 15]: 59.9%; % inhibition male (individual replicates) R4 [2, 16]: 92.2%; HitlevelM ([2]; number of replicates with >50% inhibition in the male readout, 2µM): 4
COc1ccc(NC(=O)[C@H](CC(C)C)Nc2cc(C)nc(NCc3ccccc3C)n2)cc1.O=C(O)C(F)(F)F [TCMDC-134909] | 7.3 | 5.6 | -14.2 | 28.8 | – | 9.0 | 15.3 | -6.1 | 18.9 | – | – | – | – | – | – | – | – | – | HitlevelF [1, 17]: 0; HitlevelM [2, 18]: 0; Activity [2, 19]: 0
NS(=O)(=O)c1cccc(Nc2nc(N[C@@H]3CCNC3)nc3cc[nH]c(=O)c23)c1.O=C(O)C(F)(F)F [TCMDC-135057] | 3.8 | 4.1 | 1.9 | 9.1 | – | -3.6 | -10.0 | – | -11.4 | – | – | – | – | – | – | – | – | – | HitlevelF [1, 17]: 0; HitlevelM [2, 18]: 0; Activity [2, 19]: 0
COc1ccccc1CNc1ccnc(N2CC(Oc3ccc(F)cc3)C2)n1 [TCMDC-135118] | – | – | – | – | – | – | – | – | – | – | 24.5 | -33.1 | 4.4 | 3.5 | 9.0 | -43.0 | 42.2 | 10.3 | –
CN1CCN(CC2(Nc3nccc(NCCc4cn(C)c5ccccc45)n3)CCCCC2)CC1 [TCMDC-135122] | 24.1 | 17.1 | 12.9 | 28.9 | 0 | 31.6 | 31.6 | 5.8 | 52.9 | 1 | – | – | – | – | – | – | – | – | –
C#C[C@H]1O[C@@H](n2cnc3c(Nc4cc(Br)cc(C(F)(F)F)c4)ncnc32)[C@H](O)[C@@H]1O [TCMDC-135185] | – | – | – | – | – | – | – | – | – | – | – | – | – | – | – | – | – | – | Selectivity ratio F ([1]; HepG2 Tox50 versus female IC50): 10; inhibition at 2 µM ([1]; Plasmodium falciparum, 2µM, 24h preincubation with gametocytes, average of replicates, read-out: Average inhibition female (%)): 3.7%; inhibition at 2 µM ([1]; Plasmodium falciparum, 2µM, 24h preincubation with gametocytes, replicate R1, read-out: % inhibition female (individual replicates) R1): 8.3%; inhibition at 2 µM ([1]; Plasmodium falciparum, 2µM, 24h preincubation with gametocytes, replicate R2, read-out: % inhibition female (individual replicates) R2): -2.8%; inhibition at 2 µM ([1]; Plasmodium falciparum, 2µM, 24h preincubation with gametocytes, replicate R3, read-out: % inhibition female (individual replicates) R3): -10.2%; inhibition at 2 µM ([1]; Plasmodium falciparum, 2µM, 24h preincubation with gametocytes, replicate R4, read-out: % inhibition female (individual replicates) R4): 19.5%; IC50 ([1]; Plasmodium falciparum, PfDGFA, 24 h incubation with gametocytes before induction, female gamete readout, read-out: Female IC50): > 10000 nM; Selectivity Ratio M ([2]; HepG2 Tox50 versus male IC50): 328.28; inhibition at 2 µM ([2]; Plasmodium falciparum, 2µM, 24h preincubation with gametocytes, average of replicates, read-out: Average inhibition male (%)): 97%; inhibition at 2 µM ([2]; Plasmodium falciparum, 2µM, 24h preincubation with gametocytes, replicate R1, read-out: % inhibition male (individual replicates) R1): 97.5%; inhibition at 2 µM ([2]; Plasmodium falciparum, 2µM, 24h preincubation with gametocytes, replicate R2, read-out: % inhibition male (individual replicates) R2): 96.8%; inhibition at 2 µM ([2]; Plasmodium falciparum, 2µM, 24h preincubation with gametocytes, replicate R3, read-out: % inhibition male (individual replicates) R3): 98%; inhibition at 2 µM ([2]; Plasmodium falciparum, 2µM, 24h preincubation with gametocytes, replicate R4, read-out: % inhibition male (individual replicates) R4): 95.6%; IC50 ([2]; Plasmodium falciparum, PfDGFA, 24 h incubation with gametocytes before induction, exflagellation readout, read-out: Male IC50): 300 nM
O=C(C1CCCC1)N1CCOC(CCN2CCC(c3ccccc3)CC2)(c2ccc(Cl)c(Cl)c2)C1 (centres unmarked) [TCMDC-135327] | – | – | – | – | – | – | – | – | – | – | 8.8 | -20.5 | 17.1 | -1.8 | 1.8 | 11.7 | 15.6 | 8.1 | –
O=C(Nc1ccc(C(=O)OCC2CCCCC2)cc1)N[C@@H](Cc1ccc(O)cc1)C(=O)NC1CCN(Cc2ccc(O)cc2)C1.O=C(O)C(F)(F)F (some centres unmarked) [TCMDC-135357] | 4.9 | 8.9 | 10.5 | 8.3 | – | -19.1 | -13.6 | -12.1 | -40.5 | – | – | – | – | – | – | – | – | – | HitlevelF [1, 17]: 0; HitlevelM [2, 18]: 0; Activity [2, 19]: 0
C=C[C@]1(C)C[C@@H](OC(=O)CNC[C@@H](O)CN2C[C@H](c3ccnc4ccc(OC)nc34)OC2=O)[C@]2(C)[C@H](C)CC[C@]3(CCC(=O)[C@H]32)[C@@H](C)[C@@H]1O [TCMDC-135366] | – | – | – | – | – | – | – | – | – | – | -19.6 | -21.7 | -0.7 | -7.1 | -4.9 | -9.1 | 9.5 | -1.6 | –
